Earlier results, collected in PubChem BioAssay AID1259409 (Chemical Carcinogenesis Research Information System (CCRIS), 2018).

Test system: rodent chemically induced tumor inhibition, incidence and multiplicity
Test: CCRIS tumor inhibitor studies
Conditions: Carcinogen: DIETHYLNITROSAMINE, 55-18-5, N-METHYLNITROSOUREA, 684-93-5, 1,2-DIMETHYLHYDRAZINE, 540-73-8, Carcinogen: DIETHYLNITROSAMINE, 55-18-5, N-METHYLNITROSOUREA, 684-93-5, 1,2-DIMETHYLHYDRAZINE, 540-73-8, Dose [Inhibitor]: 0, Route [Inhibitor]: ORAL, Species: RAT, Strain/Sex: F344/MALE, Dose [Carcinogen]: 100 MG/KG DEN ONCE, 20 MG/KG MNU 4 TIMES, 40 MG/KG DMH 4 TIMES, 0.05% BBN IN DRINKING WATER FOR 2 WK, 0.1% DHPN IN D, Dose [Carcinogen]: 100 MG/KG DEN ONCE, 20 MG/KG MNU 4 TIMES, 40 MG/KG DMH 4 TIMES, 0.05% BBN IN DRINKING WATER FOR 2 WK, 0.1% DHPN IN D, Promoter: NONE USED

SMILES: COc1cc(C=O)ccc1O
- tumour outcome (control, treated, inhibition, significance) (N-BUTYL-N-(4-HYDROXYB, N-BUTYL-N-(4-HYDROXYB, 1% IN DIET FOR 4 WK BEGINNING 1 DAY PRIOR TO CARCINOGEN TREATMENT (STUDY DURATION: 36 WK), Target Tissue: Type of Lesion: KIDNEY: ADENOMA): 4/14 (29%), 4/15 (27%), 7%, not significant
- tumour outcome (control, treated, inhibition, significance) (N-BUTYL-N-(4-HYDROXYB, N-BUTYL-N-(4-HYDROXYB, 1% IN DIET FOR 4 WK BEGINNING 1 DAY PRIOR TO CARCINOGEN TREATMENT (STUDY DURATION: 36 WK), Target Tissue: Type of Lesion: KIDNEY: NEPHROBLASTOMA): 7/14 (50%), 8/15 (53%), -6%, not significant
- tumour outcome (control, treated, inhibition, significance) (N-BUTYL-N-(4-HYDROXYB, N-BUTYL-N-(4-HYDROXYB, 1% IN DIET FOR 4 WK BEGINNING 1 DAY PRIOR TO CARCINOGEN TREATMENT (STUDY DURATION: 36 WK), Target Tissue: Type of Lesion: LARGE INTESTINE: ADENOMA): 7/14 (50%), 6/15 (40%), 20%, not significant
- tumour outcome (control, treated, inhibition, significance) (N-BUTYL-N-(4-HYDROXYB, N-BUTYL-N-(4-HYDROXYB, 1% IN DIET FOR 4 WK BEGINNING 1 DAY PRIOR TO CARCINOGEN TREATMENT (STUDY DURATION: 36 WK), Target Tissue: Type of Lesion: LARGE INTESTINE: CARCINOMA): 3/14 (21%), 11/15 (73%), -248%, p<0.01
- tumour outcome (control, treated, inhibition, significance) (N-BUTYL-N-(4-HYDROXYB, N-BUTYL-N-(4-HYDROXYB, 1% IN DIET FOR 4 WK BEGINNING 1 DAY PRIOR TO CARCINOGEN TREATMENT (STUDY DURATION: 36 WK), Target Tissue: Type of Lesion: LUNG: ADENOMA): 6/14 (43%), 2/15 (13%), 70%, not significant
- tumour outcome (control, treated, inhibition, significance) (N-BUTYL-N-(4-HYDROXYB, N-BUTYL-N-(4-HYDROXYB, 1% IN DIET FOR 4 WK BEGINNING 1 DAY PRIOR TO CARCINOGEN TREATMENT (STUDY DURATION: 36 WK), Target Tissue: Type of Lesion: SMALL INTESTINE: ADENOMA): 6/14 (43%), 3/15 (20%), 53%, not significant
- tumour outcome (control, treated, inhibition, significance) (N-BUTYL-N-(4-HYDROXYB, N-BUTYL-N-(4-HYDROXYB, 1% IN DIET FOR 4 WK BEGINNING 1 DAY PRIOR TO CARCINOGEN TREATMENT (STUDY DURATION: 36 WK), Target Tissue: Type of Lesion: SMALL INTESTINE: CARCINOMA): 5/14 (36%), 2/15 (13%), 64%, not significant
- tumour outcome (control, treated, inhibition, significance) (N-BUTYL-N-(4-HYDROXYB, N-BUTYL-N-(4-HYDROXYB, 1% IN DIET FOR 32 WK BEGINNING POST CARCINOGEN TREATMENT (STUDY DURATION: 36 WK), Target Tissue: Type of Lesion: KIDNEY: ADENOMA): 4/14 (29%), 9/15 (60%), -107%, not significant
- tumour outcome (control, treated, inhibition, significance) (N-BUTYL-N-(4-HYDROXYB, N-BUTYL-N-(4-HYDROXYB, 1% IN DIET FOR 32 WK BEGINNING POST CARCINOGEN TREATMENT (STUDY DURATION: 36 WK), Target Tissue: Type of Lesion: KIDNEY: NEPHROBLASTOMA): 7/14 (50%), 11/15 (73%), -46%, not significant
- tumour outcome (control, treated, inhibition, significance) (N-BUTYL-N-(4-HYDROXYB, N-BUTYL-N-(4-HYDROXYB, 1% IN DIET FOR 32 WK BEGINNING POST CARCINOGEN TREATMENT (STUDY DURATION: 36 WK), Target Tissue: Type of Lesion: LARGE INTESTINE: CARCINOMA): 3/14 (21%), 5/15 (33%), -57%, not significant
- tumour outcome (control, treated, inhibition, significance) (N-BUTYL-N-(4-HYDROXYB, N-BUTYL-N-(4-HYDROXYB, 1% IN DIET FOR 32 WK BEGINNING POST CARCINOGEN TREATMENT (STUDY DURATION: 36 WK), Target Tissue: Type of Lesion: SMALL INTESTINE: ADENOMA): 6/14 (43%), 4/15 (27%), 37%, not significant
- tumour outcome (control, treated, inhibition, significance) (N-BUTYL-N-(4-HYDROXYB, N-BUTYL-N-(4-HYDROXYB, 1% IN DIET FOR 32 WK BEGINNING POST CARCINOGEN TREATMENT (STUDY DURATION: 36 WK), Target Tissue: Type of Lesion: SMALL INTESTINE: CARCINOMA): 5/14 (36%), 1/15 (7%), 81%, not significant
- tumour outcome (control, treated, inhibition, significance) (N-BUTYL-N-(4-HYDROXYBU, N-BUTYL-N-(4-HYDROXYBU, 1% IN DIET FOR 32 WK BEGINNING POST CARCINOGEN TREATMENT (STUDY DURATION: 36 WK), Target Tissue: Type of Lesion: LARGE INTESTINE: ADENOMA): 7/14 (50%), 8/15 (53%), -6%, not significant
- tumour outcome (control, treated, inhibition, significance) (N-BUTYL-N-(4-HYDROXYBU, N-BUTYL-N-(4-HYDROXYBU, 1% IN DIET FOR 32 WK BEGINNING POST CARCINOGEN TREATMENT (STUDY DURATION: 36 WK), Target Tissue: Type of Lesion: LUNG: ADENOMA): 6/14 (43%), 3/15 (20%), 53%, p<0.05
